By IC50 is commonly meant the concentration at which inhibition is half-maximal.

T1 sequence (Q9H244 whole entry): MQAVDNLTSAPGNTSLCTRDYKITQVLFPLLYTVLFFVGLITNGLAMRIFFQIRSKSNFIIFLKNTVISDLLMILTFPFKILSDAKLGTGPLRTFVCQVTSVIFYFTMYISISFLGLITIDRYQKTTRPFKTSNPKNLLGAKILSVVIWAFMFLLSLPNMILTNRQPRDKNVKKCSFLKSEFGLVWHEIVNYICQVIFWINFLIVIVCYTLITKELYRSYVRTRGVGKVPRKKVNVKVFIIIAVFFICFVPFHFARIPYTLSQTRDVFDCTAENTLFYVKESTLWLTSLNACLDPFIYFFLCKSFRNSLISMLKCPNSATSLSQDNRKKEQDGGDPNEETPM

The test has as its target T1, human P2Y12 receptor (Homo sapiens, UniProt Q9H244).
T1 construct: expressed in transfected cells; host or cells: CHO cells
The experiment in a line: P2Y12 receptor binding assay. The following applies: CHO cells with recombinant expression of the human P2Y12 receptor; tritium-labeled 2-methyl-S-ADP; RT, 2 hours. As to the method: P2Y12 Receptor Binding Assay
Chinese Hamster Ovary (CHO) cells with recombinant expression of the human P2Y12 receptor were cultured in 24 well cell-culture plates. Cells were washed three times with binding buffer (50 mM Tris pH 7.4, 100 mM NaCl, 1 mM EDTA, 0.5% BSA). The cells were then incubated with 0.5 ml per well binding buffer containing tritium-labeled 2-methyl-thio-adenosine 5′-diphosphate (2-methyl-S-ADP) (between 100′000 and 300′000 dpm per well) and various concentrations of test compounds. After incubation at RT for 2 hours, cells were washed three times with binding buffer. Then, cells were solubilized by addition of 0.5 ml solubilization buffer (SDS, NaOH, EDTA). The content of each well was then transferred into beta-counter vials and 2.0 ml of Ultima Gold Scintillation liquid was added.
With `CCOC(=O)N1CCN(C(=O)CNC(=O)c2csc(-c3ccccc3)n2)CC1` [Example 1, 4-{2-[(2-Phenyl-thiazole-4-carbonyl)-amino]-acetyl}-piperazine-1-carboxylic acid ethyl ester], the IC50 is 9150 nM. The same measure for `CCOC(=O)N1CCN(C(=O)[C@H](CCC(=O)O)NC(=O)c2csc(-c3ccccc3)n2)CC1` [Example 2, 4-{(S)-4-Carboxy-2-[(2-phenyl-thiazole-4-carbonyl)-amino]-butyryl}-piperazine-1-carboxylic acid ethyl ester]: 246 nM; for `CCCCOC(=O)N1CCN(C(=O)[C@H](CCC(=O)O)NC(=O)c2csc(-c3ccccc3Oc3ccccc3)n2)CC1` [Example 3, 4-((S)-4-Carboxy-2-{[2-(2-phenoxy-phenyl)-thiazole-4-carbonyl]-amino}-butyryl)-piperazine-1-carboxylic acid butyl ester]: 1470 nM. With `CCCCOC(=O)N1CCN(C(=O)[C@H](CCC(=O)O)NC(=O)c2csc(-c3cccc(OC)c3)n2)CC1` [Example 4, 4-((S)-4-Carboxy-2-{[2-(3-methoxy-phenyl)-thiazole-4-carbonyl]-amino}-butyryl)-piperazine-1-carboxylic acid butyl ester] the figure was 249 nM. With `CCCCOC(=O)N1CCN(C(=O)[C@H](CCC(=O)O)NC(=O)c2csc(-c3ccccc3OC)n2)CC1` [Example 5, 4-((S)-4-Carboxy-2-{[2-(2-methoxy-phenyl)-thiazole-4-carbonyl]-amino}-butyryl)-piperazine-1-carboxylic acid butyl ester] the figure was 464 nM; with `CCCCOC(=O)N1CCN(C(=O)[C@H](CCC(=O)O)NC(=O)c2csc(-c3ccccc3C)n2)CC1` [Example 6, 4-{(S)-4-Carboxy-2-[(2-o-tolyl-thiazole-4-carbonyl)-amino]-butyryl}-piperazine-1-carboxylic acid butyl ester], 334 nM. With `CCCCOC(=O)N1CCN(C(=O)[C@H](CCC(=O)O)NC(=O)c2csc(-c3ccccc3)n2)CC1` [Example 7, 4-{(S)-4-Carboxy-2-[(2-phenyl-thiazole-4-carbonyl)-amino]-butyryl}-piperazine-1-carboxylic acid butyl ester], the IC50 was 16 nM.

In the case of `CCCCOC(=O)N1CCN(C(=O)[C@H](CP(=O)(OCC)OCC)NC(=O)c2csc(-c3ccccc3)n2)CC1` [Example 8, 4-{(R)-3-(Diethoxy-phosphoryl)-2-[(2-phenyl-thiazole-4-carbonyl)-amino]-propionyl}-piperazine-1-carboxylic acid butyl ester], the IC50 turned out to be 502 nM. With `CCCCOC(=O)N1CCN(C(=O)[C@H](CP(=O)(O)O)NC(=O)c2csc(-c3ccccc3)n2)CC1` [Example 9, 4-{(R)-2-[(2-Phenyl-thiazole-4-carbonyl)-amino]-3-phosphono-propionyl}-piperazine-1-carboxylic acid butyl ester] the figure was 2 nM; with `CCCCOC(=O)N1CCN(C(=O)[C@H](Cc2ccc(P(=O)(OCC)OCC)cc2)NC(=O)c2csc(-c3ccccc3)n2)CC1` [Example 10, 4-{(S)-3-[4-(Diethoxy-phosphoryl)-phenyl]-2-[(2-phenyl-thiazole-4-carbonyl)-amino]-propionyl}-piperazine-1-carboxylic acid butyl ester], 635 nM; with `CCCCOC(=O)N1CCN(C(=O)[C@H](Cc2ccc(P(=O)(O)O)cc2)NC(=O)c2csc(-c3ccccc3)n2)CC1` [Example 11, 4-[(S)-2-[(2-Phenyl-thiazole-4-carbonyl)-amino]-3-(4-phosphono-phenyl)-propionyl]-piperazine-1-carboxylic acid butyl ester], 1 nM. With `CCOC(=O)N1CCN(C(=O)[C@H](Cc2ccc(P(=O)(OCC)OCC)cc2)NC(=O)c2csc(-c3ccccc3)n2)CC1` [Example 12, 4-{(S)-3-[4-(Diethoxy-phosphoryl)-phenyl]-2-[(2-phenyl-thiazole-4-carbonyl)-amino]-propionyl}-piperazine-1-carboxylic acid ethyl ester] the figure was 4940 nM.

With `CCOC(=O)N1CCN(C(=O)[C@H](Cc2ccc(P(=O)(O)O)cc2)NC(=O)c2csc(-c3ccccc3)n2)CC1` [Example 13, 4-[(S)-2-[(2-Phenyl-thiazole-4-carbonyl)-amino]-3-(4-phosphono-phenyl)-propionyl]-piperazine-1-carboxylic acid ethyl ester], the IC50 was determined as 2 nM. With `CCCCOC(=O)N1CCN(C(=O)[C@H](CCC(=O)OC(C)(C)C)NC(=O)c2nc(-c3ccccc3)sc2Br)CC1` [Example 14, 4-{(S)-2-[(5-Bromo-2-phenyl-thiazole-4-carbonyl)-amino]-4-tert-butoxycarbonyl-butyryl}-piperazine-1-carboxylic acid butyl ester] the figure was 1220 nM; with `CCCCOC(=O)N1CCN(C(=O)[C@H](CCC(=O)O)NC(=O)c2nc(-c3ccccc3)sc2Br)CC1` [Example 15, 4-{(S)-2-[(5-Bromo-2-phenyl-thiazole-4-carbonyl)-amino]-4-carboxy-butyryl}-piperazine-1-carboxylic acid butyl ester], 41 nM; with `CCCCOC(=O)N1CCN(C(=O)[C@H](CCC(=O)O)NC(=O)c2nc(-c3ccccc3)sc2Cl)CC1` [Example 16, 4-{(S)-4-Carboxy-2-[(5-chloro-2-phenyl-thiazole-4-carbonyl)-amino]-butyryl}-piperazine-1-carboxylic acid butyl ester], 7 nM. The same measure for `CCCCOC(=O)N1CCN(C(=O)[C@H](CCC(=O)O)NC(=O)c2nc(-c3ccccc3)sc2-c2ccccc2)CC1` [Example 17, 4-{(S)-4-Carboxy-2-[(2,5-diphenyl-thiazole-4-carbonyl)-amino]-butyryl}-piperazine-1-carboxylic acid butyl ester]: 43 nM; for `CCCCOC(=O)N1CCN(C(=O)[C@H](CCC(=O)O)NC(=O)c2nc(-c3ccccc3)sc2[C@H]2C[C@@H]2COC)CC1` [Example 18, 4-((S)-4-Carboxy-2-{[5-((1S,2S)-2-methoxymethyl-cyclopropyl)-2-phenyl-thiazole-4-carbonyl]-amino}-butyryl)-piperazine-1-carboxylic acid butyl ester]: 11 nM. Regarding `CCCCOC(=O)N1CCN(C(=O)[C@H](CCC(=O)O)NC(=O)c2nc(-c3ccccc3)sc2/C=C/C(=O)O)CC1` [Example 19, 4-((S)-4-Carboxy-2-{[5-((E)-2-carboxy-vinyl)-2-phenyl-thiazole-4-carbonyl]-amino}-butyryl)-piperazine-1-carboxylic acid butyl ester], the IC50 came out at 6 nM. On to `CCCCOC(=O)N1CCN(C(=O)[C@H](CCC(=O)O)NC(=O)c2nc(-c3ccccc3)sc2CCC(=O)O)CC1` [Example 20, 4-((S)-4-Carboxy-2-{[5-(2-carboxy-ethyl)-2-phenyl-thiazole-4-carbonyl]-amino}-butyryl)-piperazine-1-carboxylic acid butyl ester], for which the IC50 stood at 13 nM. With `CCCCOC(=O)N1CCN(C(=O)[C@H](CCC(=O)O)NC(=O)c2nc(-c3ccccc3)sc2/C=C/COC)CC1` [Example 21, 4-((S)-4-Carboxy-2-{[5-((E)-3-methoxy-propenyl)-2-phenyl-thiazole-4-carbonyl]-amino}-butyryl)-piperazine-1-carboxylic acid butyl ester] the figure was 19 nM; with `CCCCOC(=O)N1CCN(C(=O)[C@H](CCC(=O)O)NC(=O)c2nc(-c3ccccc3)sc2CCCOC)CC1` [Example 22, 4-((S)-4-Carboxy-2-{[5-(3-methoxy-propyl)-2-phenyl-thiazole-4-carbonyl]-amino}-butyryl)-piperazine-1-carboxylic acid butyl ester], 28 nM. The same measure for `CCCCOC(=O)N1CCN(C(=O)[C@H](CCC(=O)O)NC(=O)c2nc(-c3ccccc3)sc2N2CCOCC2)CC1` [Example 23, 4-{(S)-4-Carboxy-2-[(5-morpholin-4-yl-2-phenyl-thiazole-4-carbonyl)-amino]-butyryl}-piperazine-1-carboxylic acid butyl ester]: 39 nM; for `CCCCOC(=O)N1CCN(C(=O)[C@H](CCC(=O)O)NC(=O)c2nc(-c3ccccc3)sc2N2CCCC2)CC1` [Example 24, 4-{(S)-4-Carboxy-2-[(2-phenyl-5-pyrrolidin-1-yl-thiazole-4-carbonyl)-amino]-butyryl}-piperazine-1-carboxylic acid butyl ester]: 7 nM; for `CCCCOC(=O)N1CCN(C(=O)[C@H](CCC(=O)O)NC(=O)c2nc(-c3ccccc3)sc2N2CC[C@H](OC)C2)CC1` [Example 25, 4-((S)-4-Carboxy-2-{[5-((S)-3-methoxy-pyrrolidin-1-yl)-2-phenyl-thiazole-4-carbonyl]-amino}-butyryl)-piperazine-1-carboxylic acid butyl ester]: 3 nM. Regarding `CCCCOC(=O)N1CCN(C(=O)CNC(=O)c2csc(-c3ccccc3)n2)CC1` [Example 26, 4-{2-[(2-Phenyl-thiazole-4-carbonyl)-amino]-acetyl}-piperazine-1-carboxylic acid butyl ester], the IC50 was determined as 94 nM. With `CCCCOC(=O)N1CCN(C(=O)CNC(=O)c2nc(-c3ccccc3)sc2NCCCO)CC1` [Example 27, 4-(2-{[5-(3-Hydroxy-propylamino)-2-phenyl-thiazole-4-carbonyl]-amino}-acetyl)-piperazine-1-carboxylic acid butyl ester] the figure was 34 nM; with `CCCCOC(=O)N1CCN(C(=O)CNC(=O)c2nc(-c3ccccc3)sc2NCCCOC)CC1` [Example 28, 4-(2-{[5-(3-Methoxy-propylamino)-2-phenyl-thiazole-4-carbonyl]-amino}-acetyl)-piperazine-1-carboxylic acid butyl ester], 47 nM.
